Assays:
[1] = test system: NLRP3-dependent pyroptosis in differentiated THP-1 cells; assay: NLRP3-dependent pyroptosis (LDH release) in PMA-differentiated, LPS-primed, ATP-triggered THP-1 cells; format: cell-based, human; conditions: for inhibition at 10 µM: THP-1, 1.5 h, read-out: Pyroptosis Decrease, % inhibition at 10 µM
[2] = target: T1, human recombinant NLRP3 (Homo sapiens, UniProt Q96P20); assay: In vitro NLRP3 ATPase activity, on-bead ADP-Glo assay with immobilised NLRP3-GFP; format: biochemical
T1 construct: made in house; host or cells: HEK293T cells (transient transfection, captured from lysate on GFP-Trap Sepharose)
T1 sequence (Q96P20 whole entry): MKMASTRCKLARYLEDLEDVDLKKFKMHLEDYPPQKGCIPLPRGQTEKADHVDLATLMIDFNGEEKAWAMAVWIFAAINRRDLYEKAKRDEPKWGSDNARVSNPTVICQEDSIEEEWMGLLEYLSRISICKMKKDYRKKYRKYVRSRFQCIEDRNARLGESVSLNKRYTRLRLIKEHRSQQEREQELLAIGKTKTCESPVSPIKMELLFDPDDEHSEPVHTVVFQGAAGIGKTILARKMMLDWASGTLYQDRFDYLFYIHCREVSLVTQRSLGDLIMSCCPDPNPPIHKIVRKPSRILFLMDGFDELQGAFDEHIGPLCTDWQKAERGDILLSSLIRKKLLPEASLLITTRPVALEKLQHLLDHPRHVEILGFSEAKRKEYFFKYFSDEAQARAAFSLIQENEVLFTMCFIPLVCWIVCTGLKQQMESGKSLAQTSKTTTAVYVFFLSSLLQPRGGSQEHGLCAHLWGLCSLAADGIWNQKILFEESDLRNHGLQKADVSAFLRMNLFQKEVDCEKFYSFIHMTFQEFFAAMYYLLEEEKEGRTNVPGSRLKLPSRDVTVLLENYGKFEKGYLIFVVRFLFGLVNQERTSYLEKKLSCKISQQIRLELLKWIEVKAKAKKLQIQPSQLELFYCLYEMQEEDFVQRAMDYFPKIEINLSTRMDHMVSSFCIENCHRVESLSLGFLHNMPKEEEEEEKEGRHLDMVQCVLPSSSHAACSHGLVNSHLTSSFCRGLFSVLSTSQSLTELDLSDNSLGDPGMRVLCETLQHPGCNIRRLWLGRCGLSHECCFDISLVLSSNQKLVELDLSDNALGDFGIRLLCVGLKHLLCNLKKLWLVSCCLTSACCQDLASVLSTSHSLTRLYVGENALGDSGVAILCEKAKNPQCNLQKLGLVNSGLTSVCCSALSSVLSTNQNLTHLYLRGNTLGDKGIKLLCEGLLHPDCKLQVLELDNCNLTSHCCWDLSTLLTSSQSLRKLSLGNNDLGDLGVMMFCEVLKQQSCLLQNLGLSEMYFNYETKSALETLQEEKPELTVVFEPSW

[3] = test system: THP-1 cells; conditions: 72 h treatment, 0.1–100 µM, MTT; TC50 ± SEM of three experiments
[4] = test system: IL-1β release in differentiated THP-1 cells; assay: IL-1β release (ELISA) in supernatants of LPS/ATP-treated differentiated THP-1 cells; format: cell-based, human; conditions: Homo sapiens, THP-1, 10 µM test compound; same experiments as pyroptosis; vs vehicle-treated cells; mean ± SEM
Method: Different techniques could be used to study NLRP3 inhibitors; the use of differentiated THP-1 cells treated with NLRP3 activating stimuli is suitable for the screening of large series of compounds [48]. All the synthesised compounds (Figure 2) were evaluated for their NLRP3 inhibitory activity by measuring their ability to prevent NLRP3-dependent pyroptosis in differentiated THP-1 cells. THP-1 cells were differentiated into macrophages by treatment with phorbol-myristate acetate (PMA; 50 nM; 24 h) and then treated with lipopolysaccharide (LPS; 10 µg/mL; 4 h) to promote NLRP3 expression. The cells were then incubated with test compounds at the fixed concentration of 10 µM for 1 h. Test compounds were dissolved in serum free medium containing 0.1% DMSO as the vehicle. NLRP3 was activated by the addition of ATP (5 mM), and the pyroptotic cell death was evaluated after 1.5 h by measuring the lactate dehydrogenase (LDH) released in the cell supernatants. The obtained results, expressed as pyroptosis% decrease with respect to vehicle-treated cells, are collected in Table 1. In the same experiments, the release of IL-1β was measured via an ELISA assay and the results, expressed as % inhibition of IL-1β release versus vehicle-treated cells, are reported in Table 1. Finally, the cytotoxicity of the synthesised compounds was evaluated by MTT assay after treatment of THP-1 cells with increasing concentration of test compounds (0.1–100 µM) for 72 h. […] The structural modulation of compound 2 was then carried out in order to understand whether it was possible to restore/increase the activity without the re-introduction of a Michael acceptor substructure.
Human myelomonocytic THP-1 cells were cultured in RPMI 1640 medium (Aurogene, Rome, Italy) supplemented with fetal bovine serum (10%; Aurogene), L-glutamine (2 mM; Aurogene), penicillin (100 IU/mL; Aurogene) and streptomycin ([…]; Aurogene). Cell culture medium was replaced every 2−3 days, and the cultures were maintained at 37 °C and 5% CO2 in a fully humidified incubator. The day before each experiment, cells were plated in 48-well culture plates (90.000 cells/well) and were differentiated by treatment with PMA (50 nM, 24 h; Sigma-Aldrich). PMA-differentiated THP-1 cells were washed twice with phosphate-buffered saline (PBS) and primed with LPS (10 μg/mL, 4 h; Sigma-Aldrich) in serum-free medium. Cells were then incubated with compounds dissolved in medium containing 0.1% DMSO for 1 h and cell death was triggered with ATP (5 mM, 90 min; Sigma-Aldrich). MCC950 (Sigma-Aldrich batch #45216 and batch #85021 and from Crysdot (product n. CD31002496; OS05876-18070932) was used in the experiments.
IL-1β release was quantified in differentiated THP-1 supernatant, obtained as previously described, using Human IL-1 beta Uncoated ELISA kit (Invitrogen, Waltham, MA, USA), according to the manufacture’s instruction.

[5] = test system: isolated recombinant NLRP3; set-up: method as in PMID 28410442; conditions: cited from earlier work
[6] = test system: DNBS-induced colitis; set-up: method as in PMID 28410442, PMID 30559669; conditions: oral administration in mice at both 50 and 25 mg/kg; cited from earlier work
[7] = Homo sapiens, 10 µM test compound, 1 h before ATP (5 mM, 90 min), vs vehicle-treated cells, mean ± SEM, NA = not active at 10 µM
[8] = 100 μM compound, ATP 800 μM, mean ± SEM, n = 4

Row | Inhibition of NLRP3 ATPase activity (% reduction in ATP hydrolysis relative to vehicle control) [2, 8] | inhibition at 100 µM ([2]; 100 μM compound, ATP 800 μM, mean ± SEM, n = 4, read-out: Inhibition of NLRP3 ATPase activity (% reduction in ATP hydrolysis relative to vehicle control)) | NLRP3 ATPase inhibition at 1 mM compared with 100 µM ([2]; 1 mM vs 100 µM compound, data not shown) | SMILES | inhibition at 10 µM [1, 7] | Cytotoxicity TC50 [3] | inhibition at 10 µM [4] | Pyroptosis Decrease, % inhibition at 10 µM ([1]; 10 µM test compound, 1 h before ATP (5 mM, 90 min), vs vehicle-treated cells, mean ± SEM, NA = not active at 10 µM) | inhibition at 1 µM ([1]; Homo sapiens, THP-1, 1 µM test compound (Figure 3)) | Inhibition of ATP hydrolysis by NLRP3 [5] | Prevention of DNBS-induced colitis [6]
1 | inactive | – | – | CCOC(=O)Cn1c(=O)n(C(=O)CCc2ccccc2Cl)c2ccccc21 [Compound 17, Ethyl 2-(3-(3-(2-chlorophenyl)propanoyl)-2-oxo-2,3-dihydro-1H-benzo[d]-imidazol-1-yl)acetate] | 25.1 ± 4% | 95.4 ± 1.1 µM | 24.2 ± 11.2% | – | – | – | –
2 | able to reduce ATPase activity | 27.2 ± 6.3% | no significant differences | O=C(O)Cn1c(=O)n(C(=O)CCc2ccccc2Cl)c2ccccc21 [Compound 18, 2-(3-(3-(2-chlorophenyl)propanoyl)-2-oxo-2,3-dihydro-1H-benzo[d]-imidazol-1-yl)acetic acid] | 36.4 ± 11.1% | >100 µM | 21.1 ± 3.1% | active | 20 to 30% | – | –
3 | reduced the inhibitory potential | – | – | O=C(CCc1ccccc1Cl)n1c(=O)n(Cc2nn[nH]n2)c2ccccc21 [Compound 19, 1-((2H-tetrazol-5-yl)methyl)-3-(3-(2-chlorophenyl)propanoyl)-1,3-dihydro-2H-benzo[d]imidazol-2-one] | 26.2 ± 1.6% | >100 µM | < 10% | – | – | – | –
4 | – | – | – | C=C(Cc1ccccc1Cl)C(=O)OCC [INF39] | – | – | – | – | – | inhibited ATP hydrolysis | able to prevent DNBS-induced colitis
